One may read the inhibition as the percentage by which the read-out fell short of the control. Higher therefore signals strong suppression. Usually IC50 stands for the point on the concentration scale where inhibition reaches its midpoint. Higher therefore signals a need for much substance.

Structures are written as SMILES.

The first test has as its target Aldo-keto reductase family 1 member B1 (Bos taurus) (UniProt P16116). Nature of the test: Inhibition of Bos taurus (bovine) aldose reductase isolated from lens using DL-glyceraldehyde as substrate at 1.8 mM by UV-Vis spectrophotometric analysis.
As to `Cc1c(Cl)cc2c(=O)cc(-c3ccc(Cl)cc3Cl)oc2c1I`, the inhibition came out at 80%. With `O=c1cc(-c2ccccc2Cl)oc2ccccc12`, the inhibition amounted to 60%. In turn, `Cc1c(Cl)cc2c(=O)cc(-c3ccccc3)oc2c1I` registered an inhibition of 80%. The same measure, in the same setting: then `O=c1cc(-c2ccc(Cl)cc2Cl)oc2c(I)cc(Cl)cc12`, with 80%; and `O=c1cc(-c2ccccc2)oc2c(I)cc(Cl)cc12`, with 70%.

The target in another test is Aldo-keto reductase family 1 member B1 (Rattus norvegicus, UniProt P07943). Nature of the test: Inhibition of Rattus norvegicus (rat) aldose reductase isolated from lens using DL-glyceraldehyde as substrate after 30 min by fluorometric analysis.
`O=c1cc(-c2ccc(O)cc2)oc2c([C@@H]3O[C@H](CO)[C@@H](O)[C@H](O)[C@H]3O)c(O)cc(O)c12` [VITEXIN] returned an IC50 of 2.03 µM. That is a single-digit micromolar value.

The target of another test is Aldo-keto reductase family 1 member B1 (Homo sapiens, UniProt P15121). The experiment in a line: Inhibition of aldose reductase (unknown origin).
The compound `O=c1cc(-c2ccc(O)c(O)c2)oc2cc(O)c([C@@H]3O[C@H](CO)[C@@H](O)[C@H](O)[C@H]3O)c(O)c12` [ISOORIENTIN] came in with an IC50 of 1.91 µM.

`O=C(O)/C=C/c1ccc(O)cc1` [COUMARIC ACID] came in with an IC50 of 0.14 µM. This IC50 is about 14-fold lower than that of the compound before. The same measure, in the same setting: for `COc1cc(-c2cc(=O)c3c(O)cc(O)cc3o2)cc(OC)c1O` [TRICIN] the value was 2.03 µM.

The values are drawn from ChEMBL document CHEMBL3045846, “Experimental validation and docking studies of flavone derivatives on aldose reductase involved in diabetic retinopathy, neuropathy, and nephropathy” (Med Chem Res, 2011).
